According to patent US20250282799A1, “SUBSTITUTED PYRIDO[4,3-d]PYRIMIDINES AS KRAS MODULATORS” (Alterome Therapeutics, Inc., priority 2023, published 2025):

Tests used:
[1] = test system: KRAS G12V dependent lung adenocarcinoma cell line, NCI-H441; test: Cellular pERK (Thr202/Tyr204) FRET/HTRF assay; format: cell-based; settings: Homo sapiens
Procedure, shortened: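 IC50 reflects inhibition of ERK1/2 Thr202/Tyr204 phosphorylation, quantified by HTRF after a 1 hr treatment of KRAS G12V-driven NCI-H441 cells. DMSO served as negative control.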

KRAS (G12D)/CRAF = KRAS (G12D)/CRAF (Homo sapiens (Human), UniProt P01116, G12D); test: TR-FRET biochemical KRAS:CRAF protein:protein interaction assay, KRAS (G12D); format: binding; settings: GMPPNP loaded Biotin-KRAS (G12D), FLAG CRAF RBD; read-out: TR-Fret_PPI KRAS (G12D)/CRAF IC50
Chain of KRAS (G12D)/CRAF (P01116-2 other isoform, or with tags, fused parts or gaps G12D): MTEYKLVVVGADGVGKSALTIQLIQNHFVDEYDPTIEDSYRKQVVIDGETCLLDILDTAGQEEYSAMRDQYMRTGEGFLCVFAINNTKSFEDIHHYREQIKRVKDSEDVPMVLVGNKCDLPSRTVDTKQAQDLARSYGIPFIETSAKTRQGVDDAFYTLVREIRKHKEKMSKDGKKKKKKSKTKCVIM
Procedure: (§1) The effect of test compounds on KRAS and CRAF protein: protein interaction (PPI) was measured by time resolved fluorescence resonance energy transfer (TR-FRET) Ras binding domain (RBD) assay, which uses a signal generated through fluorescent resonance energy transfer between a donor and an acceptor molecule when in close proximity to each other. Interference from buffer, media, etc. is reduced by dual-wavelength detection; the energy pulse from the excitation source is followed by a time delay, which allows interfering short-lived fluorescence to decay (Degorce et al. 2009).
(§2) The KRAS: CRAF PPI assay can be utilized to identify KRAS ‘ON’ state inhibitors, as the KRAS protein is loaded with GMPPNP (a non-hydrolyzable GTP analog), which represents the active KRAS ‘ON’ state. FLAG-tagged CRAF RBD binding to the GMPPNP loaded biotin-tagged KRAS will result in a fluorescence energy transfer from the donor (Tb-anti-FLAG, emission 620 nm) to the acceptor (SA-XL665, emission 665 nm). Disruption of KRAS and CRAF binding will reduce the TR-FRET signal.
(§3) Test compound was dissolved in DMSO to create a 1 mM stock solution. A 45 μL volume of stock solution was transferred to a 384well polypropylene plate. A 3fold, 10point dilution was performed by transferring 15 μL of test compound solution into 30 μL of DMSO.
(§4) Assay buffer A was prepared with […] Hepes, pH7.3, 0.002% Tween 20, 0.1% BSA, […] NaCl, 5 mM MgCl2, and 10 uM GMP-PNP. 4× KRAS Solution was prepared with 80 nM of Biotin-KRAS (G12D/V), GMPPNP loaded or Biotin-KRAS (WT), GMPPNP loaded protein in assay buffer A. 4× Raf RBD Solution was prepared with 400 nM FLAG CRAF RBD in assay buffer A. 2× Detection Mixture was prepared with 2 nM Tb-anti-FLAG antibody and 10 nM and 10 nM SA-XL665 in assay buffer A.
(§5) A volume of 100 nL of 100× test compound working solution or DMSO vehicle control solution was dispensed to each well (duplicate for each concentration) of a 384-well ProxiPlate Plus assay plate. A volume of 2.5 μL of 4× KRAS Solution was added to each well of the assay plate for a final concentration of 20 nM Biotin-KRAS (G12D/V),GMPPNP loaded or 20 nM Biotin-KRAS (WT), GMPPNP. For low control, add 2.5 μL of assay buffer (no KRAS protein). Pre-incubate assay plate for 30 minutes at room temperature. Following pre-incubation of test compound or DMSO with Biotin-KRAS (G12D/V),GMPPNP loaded or Biotin-KRAS (WT),GMPPNP, a volume of 2.5 μL of 4× FLAG cRAF RBD Solution was added to each well of the assay plate for a final concentration of 100 nM FLAG CRAF RBD. The assay plate was subjected to centrifuge at 1000 rpm for 1 minute and pre-incubate assay plate for 150 minutes at room temperature. Following the pre-incubation with FLAG cRAF RBD, a volume of 5 μl of 2× Detection Mixture was added to each well of the assay plate for a final concentration of 1 nM Tb-anti-FLAG and 5 nM SA-XL665. The assay plate was centrifuged at 1000 rpm for 1 minute and incubated for 90 minutes at room temperature. TR-FRET signal was measured on a BioTek Synergy Neo2 microplate reader (excitation at 340 nm, emission at 665 nn and 620 nm).
(§6) TR-FRET ratios were calculated by dividing the acceptor emission value (665 nm) by the donor emission value (620 nm) for each sample.
(§7) Percent inhibition was calculated by multiplying the normalized TR-FRET ratio by 100, where TR-FRET ratio^HIGH was the TR-FRET ratio obtained from wells with 1% DMSO and complete reaction mixture, TR-FRET ratio^LOW was the ratio obtained from wells with 1% DMSO and reaction mixture without KRAS protein and TR-FRET ratio^SAMPLE was the TR-FRET ratio from wells with test compound and complete reaction mixture. The IC50 values were calculated from normalized TR-FRET ratios with the Levenberg-Marquardt 4 parameter fitting procedure.
(§8) This assay quantifies the interaction of a KRAS mutant protein (e.g., G12V) with the CRAF Ras-binding domain (RBD). […]

KRAS (G12V)/CRAF = KRAS (G12V)/CRAF (Homo sapiens (Human), UniProt P01116, G12V); test: TR-FRET biochemical KRAS:CRAF protein:protein interaction assay, KRAS (G12V); format: binding; settings: GMPPNP loaded Biotin-KRAS (G12V), FLAG CRAF RBD; read-out: TR-Fret_PPI KRAS (G12V)/CRAF IC50
Chain of KRAS (G12V)/CRAF (P01116-2 other isoform, or with tags, fused parts or gaps G12V): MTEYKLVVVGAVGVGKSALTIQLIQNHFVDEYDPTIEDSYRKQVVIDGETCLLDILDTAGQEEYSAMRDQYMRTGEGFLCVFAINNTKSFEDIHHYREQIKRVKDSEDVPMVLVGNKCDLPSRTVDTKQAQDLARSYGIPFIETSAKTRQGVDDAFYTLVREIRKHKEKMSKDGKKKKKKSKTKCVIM
Procedure: as §1, §2, §3, §4, §5, §6, §7, §8

[2] = NCI-H441, pERK HTRF, NCI-H441 cells (KRAS G12V)
[3] = NCI-H441, cellular pERK (Thr202/Tyr204) HTRF, NCI-H441 cells

| SMILES | IC50 [1, 2] | IC50 (KRAS (G12D)/CRAF) | IC50 (KRAS (G12V)/CRAF) | IC50 [1, 3] |
| --- | --- | --- | --- | --- |
| [2H]C([2H])(Oc1nc(N2CCCC[C@@H]3[C@H](F)[C@@H]32)c2cnc(-c3cc(N)cc4cc(F)c(F)c(C#C)c34)c(F)c2n1)[C@@]12CCCN1C[C@H](F)C2 [Example 14, 5-Ethynyl-6,7-difluoro-4-(8-fluoro-4-((1R,7S,8S)-8-fluoro-2-azabicyclo[5.1.0]octan-2-yl)-2-(((2R,7aS)-2-fluorotetrahydro-1H-pyrrolizin-7a(5H)-yl)methoxy-d2)pyrido[4,3-d]pyrimidin-7-yl)naphthalen-2-amine] | 500 to 10000 nM | ≥ 10000 nM | ≥ 10000 nM |  |
| [2H]C([2H])(Oc1nc(N2CCOC[C@H]3[C@H](F)[C@H]32)c2c(OC)nc(-c3cc(N)cc4ccc(F)c(C#C)c34)c(F)c2n1)[C@@]12CCCN1C[C@H](F)C2 [Example 222, 5-Ethynyl-6-fluoro-4-(8-fluoro-4-((1S,7S,8S)-8-fluoro-5-oxa-2-azabicyclo[5.1.0]octan-2-yl)-2-(((2R,7aS)-2-fluorotetrahydro-1H-pyrrolizin-7a(5H)-yl)methoxy-d2)-5-methoxypyrido[4,3-d]pyrimidin-7-yl)naphthalen-2-amine] |  | 11.7 nM | 53.7 nM | < 50 nM |
| [2H]C([2H])(Oc1nc(N2CCOC[C@H]3[C@H](Cl)[C@H]32)c2cnc(-c3cc(N)cc4ccc(F)c(C#C)c34)c(F)c2n1)[C@@]12CCCN1[C@H](C)[C@H](F)C2 [Example 340, 4-(4-((1S,7S,8S)-8-Chloro-5-oxa-2-azabicyclo[5.1.0]octan-2-yl)-8-fluoro-2-(((2R,3R,7aS)-2-fluoro-3-methyltetrahydro-1H-pyrrolizin-7a(5H)-yl)methoxy-d2)pyrido[4,3-d]pyrimidin-7-yl)-5-ethynyl-6-fluoronaphthalen-2-amine] |  | 7.14 nM | 50.1 nM | < 50 nM |
| [2H]C([2H])(Oc1nc(N2CCOC[C@@H]3[C@H](Cl)[C@@H]32)c2cnc(-c3cc(N)cc4ccc(F)c(C#C)c34)c(F)c2n1)[C@@]12CCCN1C[C@H](F)C2 [Example 250, 4-(4-((1R,7R,8S)-8-chloro-5-oxa-2-azabicyclo[5.1.0]octan-2-yl)-8-fluoro-2-(((2R,7aS)-2-fluorotetrahydro-1H-pyrrolizin-7a(5H)-yl)methoxy-d2)pyrido[4,3-d]pyrimidin-7-yl)-5-ethynyl-6-fluoronaphthalen-2-amine] |  | 1670 nM | 3000 nM | 50 to 500 nM |
| [2H]C([2H])(Oc1nc(N2CCCC[C@H]3[C@@H](F)[C@H]32)c2cnc(-c3cc(N)cc4cc(F)c(F)c(C#C)c34)c(F)c2n1)[C@@]12CCCN1C[C@H](F)C2 [Example 13, 5-Ethynyl-6,7-difluoro-4-(8-fluoro-4-((1S,7R,8R)-8-fluoro-2-azabicyclo[5.1.0]octan-2-yl)-2-(((2R,7aS)-2-fluorotetrahydro-1H-pyrrolizin-7a(5H)-yl)methoxy-d2)pyrido[4,3-d]pyrimidin-7-yl)naphthalen-2-amine] | 50 to 500 nM | 430 nM | 2830 nM |  |
| [2H]C([2H])(Oc1nc(N2CCOC[C@@H]3[C@@H](F)[C@@H]32)c2cnc(-c3cc(N)cc4ccc(F)c(C#C)c34)c(F)c2n1)[C@@]12CCCN1C[C@H](F)C2 [Example 221, 5-ethynyl-6-fluoro-4-(8-fluoro-4-((1R,7R,8R)-8-fluoro-5-oxa-2-azabicyclo[5.1.0]octan-2-yl)-2-(((2R,7aS)-2-fluorotetrahydro-1H-pyrrolizin-7a(5H)-yl)methoxy-d2)pyrido[4,3-d]pyrimidin-7-yl)naphthalen-2-amine] |  | > 3000 nM | > 3000 nM | 500 to 10000 nM |
| C#Cc1c(F)ccc2cc(N)cc(-c3ncc4c(N5CCCC[C@H]6C[C@H]65)nc(OC[C@@]56CCCN5C[C@H](F)C6)nc4c3F)c12 [Example 5, 4-(4-((1R,7S)-2-azabicyclo[5.1.0]octan-2-yl)-8-fluoro-2-(((2R,7aS)-2-fluorotetrahydro-1H-pyrrolizin-7a(5H)-yl)methoxy)pyrido[4,3-d]pyrimidin-7-yl)-5-ethynyl-6-fluoronaphthalen-2-amine] | < 50 nM | 24.2 nM | 234 nM |  |
| [2H]C([2H])(Oc1nc(N2CC=CC[C@@H]3[C@@H](F)[C@@H]32)c2cnc(-c3cc(N)cc4cc(F)c(F)c(C#C)c34)c(F)c2n1)[C@@]12CCCN1C[C@H](F)C2 [Example 138, 5-ethynyl-6,7-difluoro-4-(8-fluoro-4-((1R,7S,8R)-8-fluoro-2-azabicyclo[5.1.0]oct-4-en-2-yl)-2-(((2R,7aS)-2-fluorotetrahydro-1H-pyrrolizin-7a(5H)-yl)methoxy-d2)pyrido[4,3-d]pyrimidin-7-yl)naphthalen-2-amine] |  | ≥ 10000 nM | ≥ 10000 nM | 500 to 10000 nM |
| [2H]C([2H])(Oc1nc(N2CCOC[C@@H]3[C@@H](Cl)[C@@H]32)c2cnc(-c3cc(N)cc4ccc(F)c(C#C)c34)c(F)c2n1)[C@@]12CCCN1[C@H](C)[C@H](F)C2 [Example 339, 4-(4-((1R,7R,8R)-8-chloro-5-oxa-2-azabicyclo[5.1.0]octan-2-yl)-8-fluoro-2-(((2R,3R,7aS)-2-fluoro-3-methyltetrahydro-1H-pyrrolizin-7a(5H)-yl)methoxy-d2)pyrido[4,3-d]pyrimidin-7-yl)-5-ethynyl-6-fluoronaphthalen-2-amine] |  | 3000 nM | ≥ 10000 nM | 500 to 10000 nM |
| [2H]C([2H])(Oc1nc(N2CCOC[C@H]3C[C@H]32)c2cnc(-c3cc(N)cc4cc(F)c(F)c(C#C)c34)c(F)c2n1)[C@@]12CCCN1C[C@H](F)C2 [Example 62, 4-(4-((1R,7S)-5-oxa-2-azabicyclo[5.1.0]octan-2-yl)-8-fluoro-2-(((2R,7aS)-2-fluorotetrahydro-1H-pyrrolizin-7a(5H)-yl)methoxy-d2)pyrido[4,3-d]pyrimidin-7-yl)-5-ethynyl-6,7-difluoronaphthalen-2-amine] | 50 to 500 nM | 62.6 nM | 443 nM |  |
| [2H]C([2H])(Oc1nc(N2CCCC[C@H]3[C@H](Cl)[C@H]32)c2cnc(-c3cc(N)cc4ccc(F)c(C#C)c34)c(F)c2n1)[C@@]12CCCN1C[C@H](F)C2 [Example 342, 4-(4-((1S,7R,8S)-8-chloro-2-azabicyclo[5.1.0]octan-2-yl)-8-fluoro-2-(((2R,7aS)-2-fluorotetrahydro-1H-pyrrolizin-7a(5H)-yl)methoxy-d2)pyrido[4,3-d]pyrimidin-7-yl)-5-ethynyl-6-fluoronaphthalen-2-amine] |  | 9.04 nM | 54.7 nM | < 50 nM |
